# Results taken from ChEMBL document CHEMBL5344425, “Discovery of 5-(Pyrimidin-2-ylamino)-1H-indole-2-carboxamide Derivatives as Nur77 Modulators with Selective and Potent Activity Against Triple-Negative Breast Cancer” (J Med Chem, 2023).
# Activity calls are given as the source filed them. No cut-off for these calls is given here.
# Experiments:
# HCT-116 = test: Antiproliferative activity against human HCT-116 cells assessed as inhibition of cell growth measured after 24 hrs by MTT assay; type: functional, cell-based; conditions: HCT-116, 24 h
# [1] = test system: Nuclear receptor subfamily 4immunitygroup A member 1 (Homo sapiens), P22736 [UNDEFINED MUTATION]; test: Induction of degradation of Myc-tagged Nur77 R184A mutant (unknown origin) transfected in human MDA-MB-231 cells at 2 to 5 uM measured after 6 hrs by western blot analysis; type: cell-based; conditions: dose 2-5 µM
# MDA-MB-231 [2] = test: Induction of apoptosis in human MDA-MB-231 cells transfected with Myc-Nur77 assessed as PARP cleavage at 1 to 2 uM measured after 6 hrs by western blot analysis; type: functional, cell-based; conditions: dose 1-2 µM
# MDA-MB-231 [3] = test: Induction of apoptosis in human MDA-MB-231 cells transfected with ctr siRNA assessed as early apoptotic cells at 2 uM measured after 6 hrs by AnnexinV-FITC/PI staining based flow cytometry (reference value: 1.88%); type: functional
# MDA-MB-231 [4] = test: Induction of apoptosis in human MDA-MB-231 cells assessed as proportion of early apoptotic cells at 5 uM measured after 5 hrs by AnnexinV-FITC/PI staining based flow cytometry (reference value: 3.35%); type: functional
# [5] = target: T1, Nuclear receptor subfamily 4immunitygroup A member 1 (Homo sapiens, UniProt P22736); test: Induction of degradation of Myc-tagged Nur77 (unknown origin) transfected in human MDA-MB-231 cells at 2 to 5 uM measured after 6 hrs by western blot analysis; type: cell-based; conditions: dose 2-5 µM
# MDA-MB-231 [6] = test: Antiproliferative activity against human MDA-MB-231 cells assessed as inhibition of cell growth measured after 24 hrs by MTT assay; type: functional, cell-based; conditions: MDA-MB-231, 24 h
# HCC1806 = test: Antiproliferative activity against human HCC1806 cells assessed as inhibition of cell growth measured after 24 hrs by MTT assay; type: functional, cell-based; conditions: HCC1806, 24 h
# [7] = Toxicity in BALB/c mouse xenografted with human MDA-MB-231 cells assessed as morphological changes in lung at 10 mg/kg, ip qd for 16 days by Hematoxylin-Eosin staining based analysis; type: organism-based; conditions: in vivo, 384 h, time 16 day
# [8] = Selectivity index, ratio of IC50 for cytotoxicity against human MCF-10A cells to IC50 for antiproliferative activity against human MDA-MB-231 cells; type: toxicity, cell-based; conditions: MCF-10A cells versus MDA-MB-231 cells, read-out: Ratio IC50
# MDA-MB-231 [9] = test: Induction of apoptosis in human MDA-MB-231 cells assessed as proportion of late apoptotic cells at 1.25 uM measured after 5 hrs by AnnexinV-FITC/PI staining based flow cytometry (reference value: 2.55%); type: functional
# [10] = target: T1, Nuclear receptor subfamily 4immunitygroup A member 1; test: Antagonist activity at Nur77 ligand binding domain (unknown origin) transfected in HEK293T cells cotransfected with pG5-Luc assessed as inhibition of receptor transcriptional activity measured after 12 hrs by luciferase reporter gene assay; type: cell-based; conditions: filed as antagonist, dose 0.5-2 µM
# [11] = target: T1, Nuclear receptor subfamily 4immunitygroup A member 1; test: Binding affinity to wild type Nur77 ligand binding domain (unknown origin) assessed as decrease in fluorescence intensity incubated for 30 secs by fluorescence spectrophotometric analysis
# MDA-MB-231 [12] = test: Induction of apoptosis in human MDA-MB-231 cells transfected with Myc-Nur77 assessed as PARP cleavage at 2 to 5 uM measured after 6 hrs by western blot analysis; type: functional, cell-based; conditions: dose 2-5 µM
# MDA-MB-231 [13] = test: Induction of apoptosis in human MDA-MB-231 cells assessed as PARP cleavage at 2.5 uM pretreated with mTOR inhibitor, rapamycin for 4 hrs followed by compound addition and measured after 6 hrs by western blot analysis; type: functional, cell-based
# [14] = Toxicity in Zebra fish AB embryo assessed as mortality rate at 1.25 uM measured after 24 to 72 hrs; design: species or system Danio rerio; conditions: zebrafish, 1.25 µM, time 24-72 hrs
# [15] = target: T1, Nuclear receptor subfamily 4immunitygroup A member 1; test: Antagonist activity at Nur77 ligand binding domain (unknown origin) transfected in HEK293T cells cotransfected with pG5-Luc assessed as inhibition of receptor transcriptional activity at 1 uM measured after 12 hrs by luciferase reporter gene assay; type: cell-based; conditions: filed as antagonist
# [16] = target: T1, Nuclear receptor subfamily 4immunitygroup A member 1; test: Binding affinity to His-tagged Nur77 ligand binding domain (unknown origin) at 10 uM by surface plasmon resonance assay; conditions: filed as modulator
# MDA-MB-231 [17] = test: Induction of apoptosis in human MDA-MB-231 cells transfected with Nur77 siRNA assessed as loss of mitochondrial membrane potential at 1 uM measured after 6 hrs by JC-1 staining based flow cytometry (reference value: 6.1%); type: functional
# MDA-MB-231 [18] = test: Induction of apoptosis in human MDA-MB-231 cells transfected with ctr siRNA assessed as loss of mitochondrial membrane potential at 1 uM measured after 6 hrs by JC-1 staining based flow cytometry (reference value: 13.93%); type: functional
# MDA-MB-231 [19] = test: Induction of apoptosis in human MDA-MB-231 cells assessed as proportion of early apoptotic cells at 0.32 uM measured after 5 hrs by AnnexinV-FITC/PI staining based flow cytometry (reference value: 3.35%); type: functional
# MDA-MB-231 [20] = test: Induction of apoptosis in human MDA-MB-231 cells assessed as PARP cleavage at 2.5 uM pretreated with proteasome and calpain inhibitor, MG132 for 4 hrs followed by compound addition and measured after 6 hrs by western blot analysis; type: functional, cell-based
# MDA-MB-231 [21] = test: Induction of apoptosis in human MDA-MB-231 cells transfected with ctr siRNA assessed as late apoptotic cells at 1 uM measured after 6 hrs by AnnexinV-FITC/PI staining based flow cytometry (reference value: 3.97%); type: functional
# MDA-MB-231 [22] = test: Induction of apoptosis in human MDA-MB-231 cells transfected with ctr siRNA assessed as early apoptotic cells at 1 uM measured after 6 hrs by AnnexinV-FITC/PI staining based flow cytometry (reference value: 1.88%); type: functional
# [23] = Toxicity in BALB/c mouse xenografted with human MDA-MB-231 cells assessed as morphological changes in liver at 10 mg/kg, ip qd for 16 days by Hematoxylin-Eosin staining based analysis; type: organism-based; conditions: in vivo, 384 h, time 16 day
# [24] = target: T1, Nuclear receptor subfamily 4immunitygroup A member 1; test: Modulation of Nur77 in human MDA-MB-231 cells assessed as increase in TP53 phosphorylation at Ser15 residue at 0.31 to 5 uM measured after 6 hrs by western blot analysis; type: cell-based; conditions: filed as modulator, dose 0.31-5 µM
# MDA-MB-231 [25] = test: Induction of apoptosis in human MDA-MB-231 cells transfected with ctr siRNA assessed as loss of mitochondrial membrane potential at 2 uM measured after 6 hrs by JC-1 staining based flow cytometry (reference value: 13.93%); type: functional
# [26] = Cytotoxicity against human MCF-10A cells assessed as inhibition of cell growth measured after 24 hrs by MTT assay; type: toxicity, cell-based
# HepG2 = test: Antiproliferative activity against human HepG2 cells assessed as inhibition of cell growth measured after 24 hrs by MTT assay; type: functional, cell-based; conditions: HepG2, 24 h
# MDA-MB-231 [27] = test: Induction of apoptosis in human MDA-MB-231 cells transfected with Nur77 siRNA assessed as loss of mitochondrial membrane potential at 2 uM measured after 6 hrs by JC-1 staining based flow cytometry (reference value: 6.1%); type: functional
# MDA-MB-231 [28] = test: Induction of apoptosis in human MDA-MB-231 cells transfected with Myc-cmv assessed as PARP cleavage at 2 to 5 uM measured after 6 hrs by western blot analysis; type: functional, cell-based; conditions: dose 2-5 µM
# T1 sequence (P22736 whole entry): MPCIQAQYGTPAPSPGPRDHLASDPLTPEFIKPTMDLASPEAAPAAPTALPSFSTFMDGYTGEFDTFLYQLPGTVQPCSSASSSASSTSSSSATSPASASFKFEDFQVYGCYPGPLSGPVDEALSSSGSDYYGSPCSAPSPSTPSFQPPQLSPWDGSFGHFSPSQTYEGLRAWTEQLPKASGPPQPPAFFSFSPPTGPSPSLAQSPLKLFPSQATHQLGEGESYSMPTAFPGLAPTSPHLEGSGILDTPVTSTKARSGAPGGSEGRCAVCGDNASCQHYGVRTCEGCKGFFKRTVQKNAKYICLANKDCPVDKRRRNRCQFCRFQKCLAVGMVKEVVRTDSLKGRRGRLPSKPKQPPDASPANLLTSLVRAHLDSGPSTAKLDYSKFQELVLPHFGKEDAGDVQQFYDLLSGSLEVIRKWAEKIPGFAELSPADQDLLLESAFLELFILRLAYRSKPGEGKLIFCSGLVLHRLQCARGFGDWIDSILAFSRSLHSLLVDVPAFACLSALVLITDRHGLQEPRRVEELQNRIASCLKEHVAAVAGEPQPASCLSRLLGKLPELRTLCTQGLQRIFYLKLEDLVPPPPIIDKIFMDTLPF
# Nuclear receptor subfamily 4immunitygroup A member 1 (Homo sapiens), P22736 [UNDEFINED MUTATION], sequence (P22736 whole entry, looked up, stated change not applied): as the sequence (P22736 whole entry) above
smiles,measurement,setting,value
CCN(CC)CCCNC(=O)c1cc2cc(Nc3nccc(-c4sc(NC)nc4C)n3)ccc2[nH]1,IC50,HCT-116,9.84 µM
same,Activity,[1],inactive
same,Activity,MDA-MB-231 [2],Active
same,Activity,MDA-MB-231 [3],19.23%
same,Activity,MDA-MB-231 [4],52.78%
same,Activity,[5],Active
same,IC50,MDA-MB-231 [6],0.4 µM
same,IC50,HCC1806,0.38 µM
same,Activity,[7],Non-Toxic
same,selectivity ratio,[8],120
same,Activity,MDA-MB-231 [9],4.06%
same,inhibition,[10],Dose-Dependent Effect
same,Kd,[11],0.154 µM
same,Activity,MDA-MB-231 [12],Active
same,Activity,MDA-MB-231 [13],Active
same,Activity,[14],Non-Toxic
same,inhibition,[15],Active
same,Activity,[16],Active
same,Activity,MDA-MB-231 [17],8.57%
same,Activity,MDA-MB-231 [18],35.26%
same,Activity,MDA-MB-231 [19],9.81%
same,Activity,MDA-MB-231 [20],inactive
same,Activity,MDA-MB-231 [21],8.23%
same,Activity,MDA-MB-231 [22],11.24%
same,Activity,[23],Non-Toxic
same,Activity,[24],Active
same,Activity,MDA-MB-231 [25],68.69%
same,IC50 at 24 h,[26],48 µM
same,IC50,HepG2,53.7 µM
same,Activity,MDA-MB-231 [27],15.41%
same,Activity,MDA-MB-231 [28],Active
